These are literature values, as cited in patent publication US20090011041A1, “Compositions for Correcting Age Related Changes of a Human Endocrine System and Methods for Producing a Pharmaceutical Form Bases on Said Compositions” (priority 2004, published 2009).

Data set [1] relates to production of IL-6 by peripheral mononuclears. The note with it: dose-dependent manner; p<0.01.
For data set [2] the following is noted: for distribution volume: after PO use.
The conditions of data set [3]: DHEA 50 mg/day, placebo effect less than 10%.
The test system of data set [4] is diabetic mice.
In data set [5] the test system is IGF-1 level. The note with it: elderly patients; 50 mg/day; p<0.01.

Read-outs that look alike come from different tables or passages of the source.

As to `C[C@]12CC[C@H](OS(=O)(=O)O)CC1=CC[C@@H]1[C@@H]2CC[C@]2(C)C(=O)CC[C@@H]12` [DHEA-S, DHEA-sulfate], the “production of IL-6 by peripheral mononuclears” value (shortened to “production”) in data set [1] is reported as “inhibit the production of IL-6”. For the same compound, the distribution volume in data set [2] was 8.5 to 9.3 L. For the same compound, the half-life period in data set [2] (b32) was 7 to 10 h. Besides, in data set [2] (b33), the half-life period was 7 to 22 h. In data set [2] (in vivo), the “metabolic clearance rate (MCR)” value is 5 to 20 L/day; the “renal excretion, share of the elimination of DHEA-S and its metabolites” value is recorded as 51-73%.

Consider `C[C@]12CCC(=O)C=C1CC[C@@H]1[C@@H]2CC[C@]2(C)C(=O)CC[C@@H]12` [androstenedione], for which the “production” value in data set [1] is “inhibit the production of IL-6”.

As for `C[C@]12CC[C@H](O)CC1=CC[C@@H]1[C@@H]2CC[C@]2(C)C(=O)CC[C@@H]12` [DHEA, dehydroepiandrosterone], in data set [3] (females), the “improvement in the physical and mental state, females” value is given as 84%. Also, in data set [3] (males), the “improvement in the physical and mental state, males” value is reported as 67%. Also, the hyperglycemia and hyperinsulinemia result in data set [4] is “reduces hyperglycemia and hyperinsulinemia”. Moreover, in data set [5], the IGF-1 level result is reported as “increases the IGF-1 level”. Also, the “production” value in data set [1] is “inhibit the production of IL-6”. Moreover, the distribution volume in data set [2] was 17 to 38.5 L. Besides, the half-life period in data set [2] (b32) is 0.25 to 0.5 h. The half-life elimination period in data set [2] (b33) was 15 to 38 min. Besides, the “metabolic clearance rate (MCR)” value in data set [2] (in vivo) is given as 2000 L/day.
